In patent publication US9629847B2, “Compositions and methods for treating symptoms of inflammatory related conditions using a combination of an antihistamine and a stimulant” (priority 2011, dated 2017):

Tested on: TPA induction of neutrophil MPO activity
Test: Systemic effect: MPO activity in contralateral vehicle-treated ear after topical application (TPA model)
Source text: These include dexamethasone, a steroid, and indomethasone, a non-steroid anti-inflammatory drug, which targets cycloxygenases.

Row | SMILES | effect on MPO activity of contralateral vehicle-treated ear (systemic effect) (mouse, in vivo) | effect on MPO activity of contralateral vehicle-treated ear (systemic effect) (topical, increasing concentration)
1 | C[C@@H]1C[C@H]2[C@@H]3CCC4=CC(=O)C=C[C@]4(C)[C@@]3(F)[C@@H](O)C[C@]2(C)[C@@]1(O)C(=O)CO [dexamethasone] | increasing inhibition of MPO activity | 
2 | COc1ccc2c(c1)c(CC(=O)O)c(C)n2C(=O)c1ccc(Cl)cc1 [indomethasone] |  | increasing inhibition of MPO activity
